Data taken from PubChem BioAssay AID2060603 (Molecular Pharmacology Branch, DTP, NCI, 2025).
Where “and” joins values, the source holds several entries; their conditions need not be identical. Equal values may be shown once.

Test system: 422866-222-R5-J1-PDC spheroid viability
Assay: Anticancer human tumor 422866-222-R5-J1-PDC patient-derived pancreatic adenocarcinoma cell line growth inhibition [CLK]
Details: spheroids with HUVEC and MSC; for viability, T/C: stronger effect = lower value
Description: A high-throughput screen of multi-cell type tumor spheroids was designed to identify active combinations of […] and targeted small molecules. Complex spheroids include a stromal component modeled by human endothelial cells (HUVEC) and fibroblasts modeled by human mesenchymal stem cells (MSCs). The concentration ranges selected for each drug and investigational agent were based upon clinically achievable concentrations if the clinical Cmax of the agent was known.
Compounds. The drugs and investigational agents: cirtuvivint (SM08502; NSC835563), CC-671 (NSC850746), vemurafenib (NSC761431), tapotoclax (NSC804041), sotorasib (NSC818433), adagrasib (NSC831453), MRTX-1133 (NSC836407), BAY2416964 (NSC825713), copanlisib (NSC816437), inavolisib (NSC800729), abemaciclib (NSC768073), osimertinib (NSC779217), entinostat (NSC756642), eltanexor (KPT-8602, NSC794443), venetoclax (NSC766270), ceralasertib (NSC777638), bortezomib (NSC756655), olaparib (NSC753686), talazoparib (NSC767125), alisertib (NSC759677), peposertib (NSC802822), gemcitabine (NSC613327), 5-fluorouracil (NSC19893), SN-38 (NSC673596), oxaliplatin (NSC266046), paclitaxel (NSC125973), and doxorubicin (NSC123127), were obtained from the National Cancer Institute (NCI) Developmental Therapeutics Program Chemical Repository. The FDA-approved anticancer drug set is available from the Developmental Therapeutics Program at https://dtp.cancer.gov/organization/dscb/obtaining/available plates.htm. […] The stock solutions were prepared in dimethyl sulfoxide (DMSO, Sigma-Aldrich, St. Louis, MO, cat. D2650), except for the platinum complexes which were prepared in saline (Quality Biological, Gaithersburg, MD, cat. 114-055-101), at 800-fold the tested concentration and stored at -70 degrees C prior to their use. All drugs and investigational agents were tested over a range starting from a high concentration at or near the clinical Cmax and decreasing in half-log increments. If the clinical Cmax for an agent had not been determined, the highest concentration tested was 10 microM.
Cell Culture. All cells were maintained in an incubator at 37 degrees C and 5% CO2 with 95% humidity. The PDC lines were cultured according to standard operating procedures established by the NCI PDMR. Briefly, all PDCs were thawed and cultured in Matrigel-coated flasks prepared with a working solution of 1X Ham's F-12 nutrient mix, without supplementation (Invitrogen, Waltham, MA, cat. 11765054), 100 U/mL penicillin-streptomycin (Invitrogen, cat. 15140122), and 2.5% Matrigel (Corning Inc., Corning, NY, cat. 354248) for the first three passages. The 947758-054-R-J2-PDC line was cultured in 6B/Colon 1A media, which includes advanced DMEM/F-12 (Thermo Fisher Scientific, cat. 12634028), 10 mM HEPES (Thermo Fisher Scientific, cat. 15630080), 1X GlutaMAX supplement (Thermo Fisher Scientific, cat. 35050061), 0.1 mg/mL primocin (InvivoGen, cat. ant-pm-2), 10% defined fetal bovine serum, heat inactivated (HyClone Laboratories Inc., cat. SH30070.03HI), 1.25 mM N-Acetyl-L-cysteine (Sigma-Aldrich, cat. A9165), 10 mM nicotinamide (Sigma-Aldrich, cat. N0636), 1X B-27 supplement (Thermo Fisher Scientific, cat. 17504044), 1X N-2 supplement (Thermo Fisher Scientific, cat. 17502048), and 10 microM Y-27632 dihydrochloride (Tocris Bioscience, cat. 1254). The 876862-298-R-J1-PDC was cultured in 6E media, which includes all 6B/Colon 1A media components plus 50% L-WRN conditioned media (ATCC, cat. CRL-3276), 50 ng/mL recombinant human EGF recombinant protein (hEGF; Thermo Fisher Scientific, cat. PHG0311), 10 ng/mL recombinant human fibroblast growth factor 10 (hGFG-10; PeproTech, cat. 100-26), 1 ng/mL recombinant human fibroblast growth factor 2 (hFGF-2; PeproTech, cat. 100-18B), and 1 µM prostaglandin E2 (PGE2; Tocris, cat. 2296). The 227483-062-R1-J1-PDC line was cultured in Panc media, containing all 6E components except hFGF-2, with the addition of 500 nM SB-431542 (Selleckchem, cat. S1067) and 10 nM gastrin (Tocris, cat. 3006). […]

[1] = curve of first compound, second compound 0.0316 µM
[2] = curve of first compound, second compound 0.1 µM
[3] = curve of first compound, second compound 0.316 µM
[4] = curve of first compound, second compound 1 µM
[5] = curve of first compound, second compound 3.16 µM
[6] = curve of first compound, second compound 10 µM
[7] = second compound 0.0316 µM, first compound 0.0316 µM
[8] = second compound 0.0316 µM, first compound 0.1 µM
[9] = second compound 0.0316 µM, first compound 0.316 µM
[10] = second compound 0.0316 µM, first compound 1 µM
[11] = second compound 0.0316 µM, first compound 3.16 µM
[12] = second compound 0.0316 µM, first compound 10 µM
[13] = second compound 0.1 µM, first compound 0.0316 µM
[14] = second compound 0.1 µM, first compound 0.1 µM
[15] = second compound 0.1 µM, first compound 0.316 µM
[16] = second compound 0.1 µM, first compound 1 µM
[17] = second compound 0.1 µM, first compound 3.16 µM
[18] = second compound 0.1 µM, first compound 10 µM
[19] = second compound 0.316 µM, first compound 0.0316 µM
[20] = second compound 0.316 µM, first compound 0.1 µM
[21] = second compound 0.316 µM, first compound 0.316 µM
[22] = second compound 0.316 µM, first compound 1 µM
[23] = second compound 0.316 µM, first compound 3.16 µM
[24] = second compound 0.316 µM, first compound 10 µM
[25] = second compound 1 µM, first compound 0.0316 µM
[26] = second compound 1 µM, first compound 0.1 µM
[27] = second compound 1 µM, first compound 0.316 µM
[28] = second compound 1 µM, first compound 1 µM
[29] = second compound 1 µM, first compound 3.16 µM
[30] = second compound 1 µM, first compound 10 µM
[31] = second compound 3.16 µM, first compound 0.0316 µM
[32] = second compound 3.16 µM, first compound 0.1 µM
[33] = second compound 3.16 µM, first compound 0.316 µM
[34] = second compound 3.16 µM, first compound 1 µM
[35] = second compound 3.16 µM, first compound 3.16 µM
[36] = second compound 3.16 µM, first compound 10 µM
[37] = second compound 10 µM, first compound 0.0316 µM
[38] = second compound 10 µM, first compound 0.1 µM
[39] = second compound 10 µM, first compound 0.316 µM
[40] = second compound 10 µM, first compound 1 µM
[41] = second compound 10 µM, first compound 3.16 µM
[42] = second compound 10 µM, first compound 10 µM
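Further: spheroids exposed to agents for seven days before readout.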

With CC(Nc1ccc2c(c1)OCCn1cc(N3C(=O)OCC3C(F)F)nc1-2)C(N)=O (stereo unspecified) + CNC(=O)c1ccc(Nc2nc(OC3CCCC3)c3c(-c4ccc5nc(C)oc5c4)c[nH]c3n2)c(OC)c1 the IC50 [1] was 144 nM, the IC50 [2] was 175 nM and the IC50 [3] was 86 nM. The IC50 [4] was 48.5 nM, the IC50 [5] was 32 nM and the IC50 [6] was 62.6 nM. It also gave a viability, T/C [7] of 80.2%, a viability, T/C [8] of 52.4% and a viability, T/C [9] of 42.6%. It also gave a viability, T/C [10] of 35.1%, a viability, T/C [11] of 30.1% and a viability, T/C [12] of 28.7%. For the same molecule, the viability, T/C [13] was 83.7%, the viability, T/C [14] was 56.9% and the viability, T/C [15] was 43.8%. For the same molecule, the viability, T/C [16] was 32.8%, the viability, T/C [17] was 25.6% and the viability, T/C [18] was 31.9%. It also gave a viability, T/C [19] of 56.3%, a viability, T/C [20] of 49.1% and a viability, T/C [21] of 37%. The viability, T/C [22] was 28.1%, the viability, T/C [23] was 29.2% and the viability, T/C [24] was 24.2%. For the same molecule, the viability, T/C [25] was 56.2%, the viability, T/C [26] was 37.6% and the viability, T/C [27] was 37.7%. The viability, T/C [28] was 31%, the viability, T/C [29] was 26.2% and the viability, T/C [30] was 24.9%. For the same molecule, the viability, T/C [31] was 50.2%, the viability, T/C [32] was 41.2% and the viability, T/C [33] was 37.5%. For the same molecule, the viability, T/C [34] was 29.4%, the viability, T/C [35] was 28.8% and the viability, T/C [36] was 25.3%. The viability, T/C [37] was 58.9%, the viability, T/C [38] was 43% and the viability, T/C [39] was 36.7%. The viability, T/C [40] was 31.9%, the viability, T/C [41] was 33.1% and the viability, T/C [42] was 25.8%.
Molecule CC1(C)CCC(CN2CCN(c3ccc(C(=O)NS(=O)(=O)c4ccc(NCC5CCOCC5)c([N+](=O)[O-])c4)c(Oc4cnc5[nH]ccc5c4)c3)CC2)=C(c2ccc(Cl)cc2)C1 + CN1CCN(c2cc(C(=O)Nc3cc4cc(-c5cnn(C)c5)ccc4cn3)ccn2)CC1 has an IC50 [1] of over 10000 nM, an IC50 [2] of over 10000 nM and an IC50 [3] of 7960 nM. It also gave an IC50 [4] of under 31.6 nM, an IC50 [5] of under 31.6 nM and an IC50 [6] of under 31.6 nM. It also gave a viability, T/C [7] of 105%, a viability, T/C [8] of 104% and a viability, T/C [9] of 101%. For the same molecule, the viability, T/C [10] was 115%, the viability, T/C [11] was 113% and the viability, T/C [12] was 69.3%. The viability, T/C [13] was 111%, the viability, T/C [14] was 117% and the viability, T/C [15] was 105%. The viability, T/C [16] was 109%, the viability, T/C [17] was 95.8% and the viability, T/C [18] was 58.3%. It also gave a viability, T/C [19] of 89.2%, a viability, T/C [20] of 107% and a viability, T/C [21] of 96.5%. For the same molecule, the viability, T/C [22] was 91.2%, the viability, T/C [23] was 91.9% and the viability, T/C [24] was 39.6%. The viability, T/C [25] was 26.1%, the viability, T/C [26] was 26.1% and the viability, T/C [27] was 22.1%. It also gave a viability, T/C [28] of 27.5%, a viability, T/C [29] of 25.1% and a viability, T/C [30] of 12.1%. For the same molecule, the viability, T/C [31] was 11.2%, the viability, T/C [32] was 10.1% and the viability, T/C [33] was 8.93%. The viability, T/C [34] was 9.29%, the viability, T/C [35] was 8.57% and the viability, T/C [36] was 0.67%. It also gave a viability, T/C [37] of 3.46%, a viability, T/C [38] of 3.09% and a viability, T/C [39] of 2.86%. The viability, T/C [40] was 1.74%, the viability, T/C [41] was 2.12% and the viability, T/C [42] was 1.57%.
With CC(C)CC(NC(=O)C(Cc1ccccc1)NC(=O)c1cnccn1)B(O)O (stereo unspecified) the viability, T/C (compound 0.000949 µM) was 95.5% and 91.7%, the viability, T/C (compound 0.003 µM) was 64.7% and 73.9% and the viability, T/C (compound 0.00949 µM) was 16.9% and 26.7%. The viability, T/C (compound 0.03 µM) was 2.66% and 2.25%, the viability, T/C (compound 0.0949 µM) was 0.86% and 0.8% and the viability, T/C (compound 0.3 µM) was 2.88% and 1.33%. The IC50 (curve of compound) was 4.28 nM and 5.36 nM.
